For series [1], the system named is BXPC-3 cells. The series is described as follows: Pancreatic cancer model: BXPC-3 subcutaneous tumors in mice, tumor volume. The format is in vivo, human. The settings on record: 40 mg/kg/day, 25 daily doses, p=0.0309. As to the method:
(§1) The activity of Compound 42 was tested in a human pancreatic model: BXPC-3 cells were implanted subcutaneously into the flanks of the right legs of mice. On day 42 post-tumor implant, the mice were randomized into two groups to receive either Vehicle (30% HPBCD) or Compound 42. Compound 42 was dosed at 40 mg/kg/day. […] At the end of the study, the tumors were harvested 4 hours post the last dose to evaluate an on target response by q-RT-PCR analysis of the HH pathway genes.

The test system of series [2] is human Gli-1. The series is described as follows: Pancreatic cancer model: q-RT-PCR of HH pathway genes in harvested tumors, human Gli-1. The conditions noted are these: BXPC-3 tumors harvested 4 hours post last dose, 40 mg/kg/day. In kind it is in vivo. As to the method: as §1
In series [3] the test system is murine Gli-1 mRNA. Put plainly: Pancreatic cancer model: q-RT-PCR of HH pathway genes in harvested tumors, murine Gli-1. The settings on record: BXPC-3 tumors harvested 4 hours post last dose, 40 mg/kg/day, vs Vehicle group. The format is in vivo. As to the method:
as §1

In series [4] the test system is Gli-1 mRNA. Put plainly: Medulloblastoma model: Ptch1/Hic1 subcutaneous allografts, Gli-1 mRNA expression. In kind it is in vivo, mouse. The conditions noted are these: single oral dose, subcutaneously implanted medulloblastoma tumors, 8 hours post dose. Here is the method: (§2) The activity of Compound 42 was also evaluated in a transgenic mouse model of medulloblastoma. Mice that are heterozygous for loss of function mutations in the tumor suppressors Patched1 (Ptch1) and Hypermethylated in Cancer (Hic1) develop spontaneous medulloblastoma. […] When passaged as subcutaneous allografts, these tumors grow aggressively and are Hedgehog pathway-dependent. This model was employed to evaluate the efficacy of orally administered Compound, and to correlate activity with drug exposure in plasma and tumors.

Series [5] relates to medulloblastoma. Put plainly: Medulloblastoma model: Ptch1/Hic1 subcutaneous allografts, tumor growth and survival. In kind it is in vivo, mouse. The conditions noted are these: daily (QD) PO administration. As to the method:
as §2
The approximate effective daily oral dose for 50% inhibition of tumor growth (ED50) is 4 mg/kg.

In series [6] the test system is LX22 cells. The series is described as follows: Lung cancer model: LX22 primary SCLC xenograft in mice. In kind it is in vivo, human. From the text: To test the activity of Compound 42 in a human SCLC tumor model, LX22 cells were implanted subcutaneously into the flank of the right leg. LX22 is primary xenograft model of SCLC derived from chemo-naive patients, which has been maintained by mouse to mouse passaging. This tumor responds to etoposide/carboplatin chemotherapy in way that closely resembles a clinical setting. LX22 regresses during chemotherapy treatment, goes through a period of remission, and then begins to recur. In the LX22 model, Compound single agent activity and its ability to modulate the chemoresistant recurrence was tested. On day 32 post tumor implant, mice were randomized into three dosing groups to receive Vehicle (30% HBPCD), Compound, or the chemotherapy combination of etoposide and carboplatin (E/P). […] Etoposide was administered i.v at 12 mg/kg on days 34, 35, 36, and 48, while Carboplatin was administered i.v. at 60 mg/kg on days 34, 41, and 48, post tumor implant. On day 50, the E/P treated mice were further randomized to receive either Vehicle (30% HPBCD) or Compound follow up treatment.
Background: Xenograft models place foreign cells or tissue in a host animal.

The nature of series [7]: Oral multi-dose MTD. In kind it is in vivo, mice.
Series [8] concerns Hedgehog pathway. Put plainly: Inhibition of the Hedgehog pathway in cell culture: C3H10T1/2 osteoblast differentiation, alkaline phosphatase assay. In kind it is cell-based, Mouse. The settings on record: approximate EC50 for inhibition, C3H10T1/2 cells, sonic Hedgehog 250 ng/ml, alkaline phosphatase activity normalized to total protein. The text has this: Hedgehog pathway specific cancer cell killing effects may be ascertained using the following assay. C3H10T1/2 cells differentiate into osteoblasts when contacted with the sonic hedgehog peptide (Shh-N). Upon differentiation; these osteoblasts produce high levels of alkaline phosphatase (AP) which can be measured in an enzymatic assay (Nakamura et al., 1997 BBRC 237: 465). Compounds that block the differentiation of C3H10T1/2 into osteoblasts (a Shh dependent event) can therefore be identified by a reduction in AP production (van der Horst et al., 2003 Bone 33: 899). The assay details are described below. The results approximate (EC50 for inhibition) of the differentiation assay is shown below in Table 1.
Mouse embryonic mesoderm fibroblasts C3H10T1/2 cells (obtained from ATCC) were cultured in Basal MEM Media (Gibco/Invitrogen) supplemented with 10% heat inactivated FBS (Hyclone), 50 units/ml penicillin and 50 ug/ml streptomycin (Gibco/Invitrogen) at 37 C with 5% CO2 in air atmosphere.
C3H10T1/2 cells were plated in 96 wells with a density of 8×10^3 cells/well. Cells were grown to confluence (72 hrs). After sonic Hedgehog (250 ng/ml), and/or compound treatment, the cells were lysed in 110 μL, of lysis buffer (50 mM Tris pH 7.4, 0.1% TritonX100), plates were sonicated and lysates spun through 0.2 μm PVDF plates (Corning). 40 μL, of lysates was assayed for AP activity in alkaline buffer solution (Sigma) containing 1 mg/ml p-Nitrophenyl Phosphate. After incubating for 30 min at 37° C., the plates were read on an Envision plate reader at 405 nm. Total protein was quantified with a BCA protein assay kit from Pierce according to manufacturer's instructions. AP activity was normalized against total protein.

The source of these data is patent US11007181B2, “Cyclopamine analogs” (Infinity Pharmaceuticals, Inc., priority 2006, dated 2021).

In general, EC50 refers to the concentration that produces a half-maximal response.

In the case of `CC1=C2C[C@H]3[C@@H](CC[C@@H]4C[C@H](NS(C)(=O)=O)CC[C@@]43C)[C@@H]2CC[C@@]2(C1)O[C@@H]1C[C@H](C)CN[C@H]1[C@H]2C` [Compound 42], the “reduction of tumor volume growth compared to vehicle control” value in series [1] is on record as 40%. Moreover, the “human Gli-1 modulation (q-RT-PCR)” value in series [2] was “no modulation”. Also, in series [3], the “murine Gli-1 mRNA levels (q-RT-PCR)” value is recorded as “robust down-regulation”. Also, in series [4], the “HH pathway modulation measured by Gli-1 mRNA expression” value is given as “dose-dependent down-regulation of the HH pathway”. Moreover, in series [5], the tumor growth entry is “dose dependent inhibition of tumor growth, with frank tumor regression seen at higher doses”. The “single agent activity, treated vs vehicle groups” value in series [6] (40 mg/kg/day, 16 consecutive doses) is “no measurable difference between the treated and vehicle groups”. Moreover, the “tumor recurrence after etoposide/carboplatin (E/P) chemotherapy” value in series [6] (follow up treatment from day 50, 40 mg/kg/day oral, 35 consecutive doses, vs vehicle, p=0.0101) is reported as “substantial delay in tumor recurrence”. Also, the “oral multi-dose MTD” value in series [7] is 40 mg/kg/day.
In series [8], `CC1=C2C[C@H]3[C@@H](CC[C@@H]4CC(=O)CC[C@@]43C)[C@@H]2CC[C@@]2(C1)O[C@@H]1C[C@H](C)CN(C(C)C)[C@H]1[C@H]2C` [Compound 10] had an EC50 above 100 nM.
For the compound `CC1=C2C[C@H]3[C@@H](CC[C@@H]4C[C@@H](OC(=O)CN)CC[C@@]43C)[C@@H]2CC[C@@]2(C1)O[C@@H]1C[C@H](C)CN[C@H]1[C@H]2C` [Compound 40], the concentration giving a half-maximal response (EC50) in series [8] (Mus musculus, C3H 10T1/2) is below 20 nM.
For `CC1=C2C[C@H]3[C@@H](CC=C4C[C@@H](O)CC[C@@]43C)[C@@H]2CC[C@@]2(C1)O[C@@H]1C[C@H](C)CN[C@H]1[C@H]2C` [Compound 8], the EC50 in series [8] is above 100 nM.
